Experimental data published in US20220334101A1, “MODULATING EXTRACELLULAR MATRIX MOVEMENT” (Helmholtz Zentrum Muenchen - Deutsches Forschungszentrum …, priority 2019, published 2022).
“Also recorded” adds a separate entry of the source. Where a SMILES comes first, the peptide text is derived from it.

Assays:
[1] = system: liver; assay: ECM (matrix) movement into liver wounds after electroporation injury, NHS-FITC matrix labelling; type: in vivo, mouse
[2] = system: peritoneum; assay: ECM (matrix) movement into peritoneal wounds after laparotomy injury, NHS-FITC matrix labelling; type: in vivo, mouse
[3] = system: liver tissue; assay: In vivo effects on ECM movement in the presence of modulators (FIG. 20); conditions: FIG. 20, modulator administered after injury
Procedure: An injury within liver tissue was generated, a potential modulator was administered and ECM movement was monitored.

[4] = system: fascia fibroblasts; assay: Fascia invasion assay (ex vivo fascia 3D Matrigel culture); type: cell-based, mouse
Procedure: In order to observe the dynamic changes of fascia fibroblasts, the inventors isolated dorsal skin from P4 to P6 neonates of En1^Cre; R26^mTmG mouse lines. Cre positive neonates from this double transgenic mouse line were detected by green fluorescent signal in dorsal skin with a Leica M205 FA stereo microscope. Matrigel was prepared by diluting the stock aliquots with DMEM/F12 medium to a concentration of 6 mg/ml. Then 150 μl prepared gel was added in the center of a 35 mm cell culture dish (Ibidi). 4 mm biopsies were made from the dorsal skin and fascia tissues were then isolated from the dorsal skin tissues. Isolated fascia tissues were then embedded into the gel and were allowed to be solidified for one hour at 37° C. Then the tissue-gel system was maintained in DMEM/F12 medium (Life Technologies) supplemented with 10% FBS (Life Technologies), 1% non-essential amino acid (Thermo Fisher), 1% Glutamax (Thermo Fisher), 1% penicillin and streptomycin (Thermo Fisher) in a 37° C. incubator supplied with 95% O2 and 5% CO2. Medium was changed every other day until day 4 when tissues were collected and fixed. For fixation with Matrigel system, tissues were fixed in 2% paraformaldehyde (VWR) with 0.1% glutaraldehyde (Sigma) for 1 hour and then washed three times with phosphate buffered saline (PBS, Life Technologies) and stored in PBS at 4° C.
Fascia tissues were recorded everyday by a brightfield microscope to check the invasion and contraction state of the tissues. The invasion index was calculated with the following formula: Invasion index=(SD4−SD0)/SD0
SD4 and SD0 represent tissue size (including the migrated area) on Day 4 and Day 0, respectively. The contraction index was calculated with the following formula: Contraction index=(TD0−TD4)/TD0
TD4 and TD0 represent original tissue size (excluding the migrated area) on Day 4 and Day 0 respectively.
The Inventors isolated fascia from back-skin of En1^Cre; R26^mTmG double-transgenic mice, separately incubated whole fascia explants with 26 small molecules, and measured the invasion index (Si)=(SD4−SD0)/SD0 (see Methods) as a proxy measure of sprouting and reticulation.

[5] = system: pleural fluid matrix movement into lungs; assay: Bleomycin-induced lung fibrosis model with pleural matrix fate tracing; type: in vivo, mouse
Procedure: The inventors generated a labelling solution by mixing 5 μl NHS-ester (25 mg/ml) with 5 μl of 100 mM pH 9.0 sodium bicarbonate buffer, combining with 40 μl PBS to a total volume of 50 μl. The labelling solution was applied intra pleural under isoflurane anaesthesia by using a 30G cannula. The oropharyngeal administration of bleomycin for the induction of pulmonary fibrosis was carried out in an antagonistic anesthesia in C57BL/6J mice of both sexes (6-8 weeks age). After the toe-pinch reflex was absent, the mouse was placed on the incisors of the upper jaw and thus kept in an upright position. The tongue was carefully fixed and held to the side with tweezers while the nose of the animal is covered with tweezers. By keeping the nose closed, the mouse was forced to breathe through the mouth. With the help of a pipette, bleomycin was dissolved in a dosage of 2 units/kg KGW in 80 μl PBS carefully into the throat. As soon as the animal has inhaled the solution, it was tansferred to a Hot plate (duration approx. 30 to 60 seconds). After antagonization animals were housed for 14 days. Nintedanib was added 1 hour before bleomycin installation and every other day intra peritoneal 10 μM. To directly answer if Nintedanib's anti-fibrotic actions are mediated through its effects on fluid matrix movements, the Inventors labeled fluid matrix reservoirs on lung surfaces as before, induced lung inflammation and fibrosis with Bleomycin, and followed these mice with daily injections of Nintedanib (FIG. 44B). […] Both lung alveoli and major blood vessels lacked accretions of labeled fibers.

[6] = inhibitors 10 μM i.p. 2 hours before surgery, organs harvested after 24 h, FITC in wound lysates

SMILES	ECM (matrix) movement, liver [1, 6]	ECM (matrix) movement, peritoneum [2, 6]	effect on ECM movement towards the site of injury (phenotype) [3]	further results
O=CN1CC/C(=C\c2ccc3c(c2)OCO3)C1=O [KNK437]	decreased	decreased	–	–
COC(=O)CCC(=O)N[C@@H](C)C(=O)N[C@@H](C)C(=O)N1CCC[C@H]1C(=O)N[C@@H](C)C(=O)CCl [elastase inhibitor II] (HELM PEPTIDE1{[COC(=O)CCC(=O)[*:2]].A.A.P.A.[ClC[*:1]]}$$$$V2.0)	increased	increased	–	–
CCc1cc(C(C)=O)c(O)cc1OCCCCCC(C)(C)c1nn[nH]n1 [LY255283]	–	–	anti-fibrotic phenotypes; also recorded: inhibit ECM movement	–
COC(=O)Nc1nc2ccc(Sc3ccccc3)cc2[nH]1 [Fenbendazole]	–	–	–	toxic effects to fascia tissues [4]: toxic effects
O=c1c(O)c(-c2ccc(O)c(O)c2)oc2cc(O)cc(O)c12 [Quercetin]	decreased	decreased	–	–
CC(=N)NCc1cccc(CN)c1 [Prestw 1400W, 1400W]	–	–	anti-fibrotic phenotypes	effect on ECM movement towards the site of injury (phenotype) ([3]; listed as W1400): inhibit ECM movement
N#CCCN [BAPN]	–	–	–	ECM (matrix) movement, liver ([1]; mouse, in vivo, ip): increased; ECM (matrix) movement, peritoneum ([2]; mouse, in vivo, ip): increased
CNC(=O)[C@H](Cc1c[nH]c2ccccc12)NC(=O)[C@@H](CC(=O)NO)CC(C)C [GM6001]	–	decreased	anti-fibrotic phenotypes; also recorded: inhibit ECM movement	potency among the protease inhibitors on matrix currents ([1]; livers and peritoneas): most potent; ECM (matrix) movement, liver ([1]; mouse, in vivo, ip): decreased
COC(=O)c1ccc2c(c1)NC(=O)/C2=C(\Nc1ccc(N(C)C(=O)CN2CCN(C)CC2)cc1)c1ccccc1 [Nintedanib]	–	–	–	inward translocations (movements) of fluid matrix ([5]; Nintedanib 10 μM i.p. 1 hour before bleomycin and repeatedly, 14 days): completely abrogated; activation of lung interstitial fibroblasts into myofibroblasts ([5]; two weeks after bleomycin): refrained from activating into pathologic YAP/TAZ-positive myofibroblasts; matrix on lung surfaces (pleural matrix pools): structures and fluorescence intensity ([5]; two weeks after bleomycin): maintained the same structures and fluorescence intensity; also recorded: rescues pleural matrix pools; fibrotic developments along lung airways and bronchioles ([5]; two weeks after bleomycin, histology): very minimal signs of fibrotic developments
CN(C(=O)c1cc2ccccc2cc1C(=O)C(c1cccc2ccccc12)P(=O)(O)O)C1CCN(C(=O)c2ccccc2)CC1 (stereo not shown) [Cath-G inhibitor]	decreased	–	anti-fibrotic phenotypes	effect on ECM movement towards the site of injury (phenotype) ([3]; listed as cathepsin G inhibitors): inhibit ECM movement
O=C1c2ccc([N+](=O)[O-])cc2N=C2N(c3ccccc3)CC[C@@]12O [(S)-nitro-Blebbistatin]	–	decreased	–	organ specificity of the effect on matrix currents ([2]; livers and peritoneas compared): effected matrix currents of only one organ
CC(C)C[C@H](NC(=O)N[C@H](C(=O)N[C@@H](CCC(N)=O)C(=O)N[C@@H](C)C=O)[C@@H]1CCNC(=N)N1)C(=O)O [Elastatinal]	increased	increased	–	effect on ECM movement towards the site of injury (phenotype) ([3]; listed as Elastial): pro-fibrotic phenotype; effect on ECM movement towards the site of injury (phenotype) ([3]; listed as elastial): promote ECM movement
O=C(O)C1(c2ccc3c(c2)OC[C@H](Cc2ccc(-c4ccccc4)cc2)[C@H]3O)CCCC1 [CP-105696]	–	–	anti-fibrotic phenotype	–
COC(=O)[C@@H](N)CCCNC(=N)N[N+](=O)[O-] [L-Name]	–	–	anti-fibrotic phenotype	–
